Experimental data published in ChEMBL document CHEMBL4706489, “Hydrogen sulfide releasing oridonin derivatives induce apoptosis through extrinsic and intrinsic pathways” (Eur J Med Chem, 2020).

Key:
B16 = assay: Antiproliferative activity against mouse B16 cells assessed as reduction in cell viability after 72 hrs by MTT assay; conditions: B16, 72 h
HepG2 = assay: Antiproliferative activity against human HepG2 cells assessed as reduction in cell viability after 72 hrs by MTT assay; conditions: HepG2, 72 h
[1] = Cytotoxicity against human PBMC cells assessed as cell viability after 72 hrs by MTT assay
MCF7 = assay: Antiproliferative activity against human MCF7 cells assessed as reduction in cell viability after 72 hrs by MTT assay; conditions: MCF7, 72 h
L02 = assay: Cytotoxicity against human L02 cells assessed as cell viability after 72 hrs by MTT assay; conditions: L02, 72 h
HCT-116 = assay: Antiproliferative activity against human HCT-116 cells assessed as reduction in cell viability after 72 hrs by MTT assay; conditions: HCT-116, 72 h
K562 = assay: Antiproliferative activity against human K562 cells assessed as reduction in cell viability after 72 hrs by MTT assay; conditions: K562, 72 h
[2] = Prodrug conversion in THF/PBS buffer assessed as H2S release concentration at 0.1 mM in presence of TCEP after 20 mins by methylene blue staining based UV-Vis spectrophotometric method; type: ADME; conditions: 100 µM

| Compound | IC50 (B16) [µM] | IC50 (HepG2) [µM] | IC50 [1] [µM] | IC50 (MCF7) [µM] | IC50 (L02) [µM] | IC50 (HCT-116) [µM] | IC50 (K562) [µM] | Drug metabolism [2] [µM] |
| --- | --- | --- | --- | --- | --- | --- | --- | --- |
| O=c1[nH]cc(F)c(=O)[nH]1 [FLUOROURACIL] | 12.6 | 32.6 | > 50 | 26.7 | > 50 | – | – | – |
| C=C1C(=O)[C@]23[C@H](O)[C@H]1CC[C@H]2[C@@]12CO[C@@]3(O)[C@@H](O)[C@@H]1C(C)(C)CCC2=O | 25.5 | 10.5 | > 50 | 15.4 | 28.5 | 10.7 | 4.17 | – |
| C=C1C(=O)[C@]23[C@H](O)[C@H]1CC[C@H]2[C@@]12CO[C@@]3(O)[C@@H](O)[C@@H]1C(C)(C)CC[C@@H]2OC(C)=O [LASIOKAURIN] | 32.6 | 11.9 | > 50 | 19.8 | 25.4 | 13.5 | 5.21 | – |
| C=C1C(=O)[C@]23[C@H](OC(=O)CCC(=O)OCCOc4ccc(-c5cc(=S)ss5)cc4)[C@H]1CC[C@H]2[C@@]12CO[C@@]3(O)[C@@H](O)[C@@H]1C(C)(C)CC[C@@H]2OC(C)=O | > 50 | 5.89 | > 50 | 24.7 | 29.9 | 36.9 | 2.85 | – |
| C=C1C(=O)[C@]23[C@H](OC(=O)CCC(=O)OCCCOc4ccc(-c5cc(=S)ss5)cc4)[C@H]1CC[C@H]2[C@@]12CO[C@@]3(O)[C@@H](O)[C@@H]1C(C)(C)CC[C@@H]2OC(C)=O | 16.4 | 6.3 | > 50 | 20.8 | 22.3 | 22.1 | 2.44 | – |
| C=C1C(=O)[C@]23[C@H](OC(=O)CCC(=O)OCCOc4ccc(-c5cc(=S)ss5)cc4)[C@H]1CC[C@H]2[C@@]12CO[C@@]3(O)[C@@H](O)[C@@H]1C(C)(C)CCC2=O | > 50 | 7.52 | > 50 | 25.4 | 39.6 | > 50 | 8.79 | – |
| C=C1C(=O)[C@]23[C@H](OC(=O)CCCC(=O)OCCCCCCO[C@H]4CCC(C)(C)[C@H]5[C@H](O)[C@]6(O)OC[C@@]45[C@@H]4CC[C@H]5C(=C)C(=O)[C@]46[C@@H]5OC(=O)CCCC(=O)OCCCCCCOc4ccc(-c5cc(=S)ss5)cc4)[C@H]1CC[C@H]2[C@@]12CO[C@@]3(O)[C@@H](O)[C@@H]1C(C)(C)CC[C@@H]2O | > 50 | 10.1 | > 50 | > 50 | > 50 | > 50 | 13.5 | 15 |
| C=C1C(=O)[C@]23[C@H](OC(=O)CCCC(=O)OCCOc4ccc(-c5cc(=S)ss5)cc4)[C@H]1CC[C@H]2[C@@]12CO[C@@]3(O)[C@@H](O)[C@@H]1C(C)(C)CC[C@@H]2O | > 50 | 6.6 | > 50 | 18.3 | 39.1 | 38.4 | 4.89 | – |
| C=C1C(=O)[C@]23[C@H](OC(=O)CCCC(=O)OCCCOc4ccc(-c5cc(=S)ss5)cc4)[C@H]1CC[C@H]2[C@@]12CO[C@@]3(O)[C@@H](O)[C@@H]1C(C)(C)CC[C@@H]2OC(C)=O | > 50 | 3.57 | > 50 | 15.8 | 33.5 | 37.5 | 5.93 | – |
| Oc1ccc(-c2cc(=S)ss2)cc1 | > 50 | > 50 | > 50 | > 50 | > 50 | > 50 | > 50 | – |
| C=C1C(=O)[C@]23[C@H](OC(=O)CCCC(=O)OCCOc4ccc(-c5cc(=S)ss5)cc4)[C@H]1CC[C@H]2[C@@]12CO[C@@]3(O)[C@@H](O)[C@@H]1C(C)(C)CC[C@@H]2OC(C)=O | 11.1 | 4.78 | > 50 | > 50 | 26.8 | > 50 | 1.86 | – |
| C=C1C(=O)[C@]23[C@H](OC(=O)CCC(=O)OCCOc4ccc(-c5cc(=S)ss5)cc4)[C@H]1CC[C@H]2[C@@]12CO[C@@]3(O)[C@@H](O)[C@@H]1C(C)(C)CC[C@@H]2O | > 50 | 5.36 | > 50 | 17.9 | 34 | 42.6 | 4.57 | 15 |
| C=C1C(=O)[C@]23[C@H](OC(=O)CCCC(=O)OCCOc4ccc(-c5cc(=S)ss5)cc4)[C@H]1CC[C@H]2[C@@]12CO[C@@]3(O)[C@@H](O)[C@@H]1C(C)(C)CCC2=O | > 50 | 7.65 | > 50 | 27.5 | 42.2 | 34.9 | 5.75 | – |
| C=C1C(=O)[C@]23[C@H](OC(=O)CCCC(=O)OCCCCCCOc4ccc(-c5cc(=S)ss5)cc4)[C@H]1CC[C@H]2[C@@]12CO[C@@]3(O)[C@@H](O)[C@@H]1C(C)(C)CC[C@@H]2OC(C)=O | > 50 | 15.6 | > 50 | > 50 | > 50 | > 50 | 13.9 | – |
| C=C1C(=O)[C@]23[C@H](OC(=O)CCCC(=O)OCCCCCCOc4ccc(-c5cc(=S)ss5)cc4)[C@H]1CC[C@H]2[C@@]12CO[C@@]3(O)[C@@H](O)[C@@H]1C(C)(C)CCC2=O | > 50 | 9.33 | > 50 | > 50 | > 50 | > 50 | 8.89 | – |
| C=C1C(=O)[C@]23[C@H](OC(=O)CCCC(=O)OCCCOc4ccc(-c5cc(=S)ss5)cc4)[C@H]1CC[C@H]2[C@@]12CO[C@@]3(O)[C@@H](O)[C@@H]1C(C)(C)CC[C@@H]2O | > 50 | 5.93 | > 50 | 16.6 | 40.9 | – | 4.19 | 15 |
| C=C1C(=O)[C@]23[C@H](OC(=O)CCC(=O)OCCCOc4ccc(-c5cc(=S)ss5)cc4)[C@H]1CC[C@H]2[C@@]12CO[C@@]3(O)[C@@H](O)[C@@H]1C(C)(C)CCC2=O | > 50 | 5.01 | > 50 | 19.5 | > 50 | 14 | 7.12 | – |
| C=C1C(=O)[C@]23[C@H](OC(=O)CCCC(=O)OCCCOc4ccc(-c5cc(=S)ss5)cc4)[C@H]1CC[C@H]2[C@@]12CO[C@@]3(O)[C@@H](O)[C@@H]1C(C)(C)CCC2=O | 39.9 | 2.58 | > 50 | 12.5 | 27.2 | 23.7 | 3.59 | – |
| C=C1C(=O)[C@]23[C@H](OC(=O)CCC(=O)OCCCCCCOc4ccc(-c5cc(=S)ss5)cc4)[C@H]1CC[C@H]2[C@@]12CO[C@@]3(O)[C@@H](O)[C@@H]1C(C)(C)CCC2=O | > 50 | 10.5 | > 50 | 34.8 | > 50 | > 50 | 5.87 | – |
